These results are taken from PMC8869358, “High-Throughput Chemical Screening and Structure-Based Models to Predict hERG Inhibition” (Biology, 2022).

What is called IC50 is the concentration that inhibits the measured activity by half. A higher IC50 goes with weaker potency.

Where a name gives a salt, the structure may show the parent alone.

Chain of hERG (Q12809 whole entry): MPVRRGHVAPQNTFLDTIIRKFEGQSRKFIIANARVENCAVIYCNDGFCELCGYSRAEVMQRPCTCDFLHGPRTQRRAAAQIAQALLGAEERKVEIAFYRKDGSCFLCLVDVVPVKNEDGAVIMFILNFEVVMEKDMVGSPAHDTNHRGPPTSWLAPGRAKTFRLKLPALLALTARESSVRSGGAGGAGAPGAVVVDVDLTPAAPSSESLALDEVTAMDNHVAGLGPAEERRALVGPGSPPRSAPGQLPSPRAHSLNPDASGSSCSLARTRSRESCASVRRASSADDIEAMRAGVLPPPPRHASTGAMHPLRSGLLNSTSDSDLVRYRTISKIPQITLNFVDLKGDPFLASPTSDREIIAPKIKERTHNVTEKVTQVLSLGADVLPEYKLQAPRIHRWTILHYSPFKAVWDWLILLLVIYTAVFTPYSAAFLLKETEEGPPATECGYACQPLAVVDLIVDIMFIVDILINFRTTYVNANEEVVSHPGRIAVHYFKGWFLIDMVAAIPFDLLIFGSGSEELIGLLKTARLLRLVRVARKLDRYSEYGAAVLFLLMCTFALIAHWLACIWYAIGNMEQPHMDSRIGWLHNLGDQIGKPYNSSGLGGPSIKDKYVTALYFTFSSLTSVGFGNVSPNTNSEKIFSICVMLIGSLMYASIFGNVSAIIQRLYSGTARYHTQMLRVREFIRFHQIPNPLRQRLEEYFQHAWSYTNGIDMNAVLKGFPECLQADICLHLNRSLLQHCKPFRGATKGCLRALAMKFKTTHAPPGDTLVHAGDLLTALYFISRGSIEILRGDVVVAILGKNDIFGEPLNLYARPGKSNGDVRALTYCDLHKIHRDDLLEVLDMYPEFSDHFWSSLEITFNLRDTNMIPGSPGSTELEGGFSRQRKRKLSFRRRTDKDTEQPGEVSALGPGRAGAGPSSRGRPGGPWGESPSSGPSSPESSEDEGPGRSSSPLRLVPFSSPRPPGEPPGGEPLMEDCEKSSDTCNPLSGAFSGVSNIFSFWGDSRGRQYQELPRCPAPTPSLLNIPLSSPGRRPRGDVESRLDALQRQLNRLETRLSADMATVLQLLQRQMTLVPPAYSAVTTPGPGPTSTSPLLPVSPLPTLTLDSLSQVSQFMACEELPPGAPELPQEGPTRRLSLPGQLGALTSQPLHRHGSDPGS

The assay addresses hERG (Homo sapiens, UniProt Q12809). The assay is described as follows: cell-based. As to conditions: (-LOG10(IC50), µM).
Regarding `CCCCCCCC[N+](C)(CCCCCCCC)CCCCCCCC` [Methyltrioctylammonium chloride], 0.616 µM corresponded to half-maximal inhibition (IC50). As to `CSc1ccc2c(c1)C(N1CCN(C)CC1)Cc1ccccc1S2` (centres unmarked) [Metitepine], 1.15 µM corresponded to half-maximal inhibition (IC50).

In the case of `CN1CCCC(CC2c3ccccc3Sc3ccccc32)C1` (centres unmarked) [Metixene hydrochloride], the IC50 was 4.77 µM. With `COc1ccc(C(=O)c2ccc(C)cc2)c(O)c1` [Mexenone], the midpoint of inhibition, the IC50, lay at 45.9 µM.

Compound `CCCCCCCCCCCCCCCCCCNC(=O)OC1CCN(C(=O)OC[C@H](COC(=O)N(Cc2cccc[n+]2CC)C(=O)c2ccccc2OC)OC)CC1` [Minopafant] gave an IC50 of 19 µM. Under `CN(c1nccc(=O)[nH]1)C1CCN(c2nc3ccccc3n2Cc2ccc(F)cc2)CC1` [Mizolastine] stands 2.21 µM. In turn, `O=C(CCCN1CCN(c2ccc(F)cc2)CC1)NC1c2ccccc2CSc2ccccc21` (centres unmarked) [Monatepil] gave an IC50 of 2.01 µM. In turn, `Cc1ccsc1/C=C/C1=NCCCN1C` [Morantel tartrate] showed an IC50 of 19.7 µM. Under `O=C(OCCN1CCOCC1)c1cccnc1Nc1cccc(C(F)(F)F)c1` [Morniflumate] stands 10.3 µM; under `O=C1NC2CCCCN2C12CCN(CCCN1c3ccccc3CCc3ccc(Cl)cc31)CC2` (centres unmarked) [Mosapramine], 0.882 µM. With `COc1c(C(C)(C)C)cc([N+](=O)[O-])c(C)c1[N+](=O)[O-]` [Musk ambrette], the IC50 is 20.5 µM.

With `CCCCCCCCCCCCCCNCCO` [Myralact], the IC50 was 12.5 µM.

Compound `CCCCCCCCCCCCCC[N+](C)(C)C` [Myristyltrimethylammonium chloride] showed a 50% inhibitory concentration (IC50) of 15 µM.

`O=C1C=CC(=O)N1c1cccc(N2C(=O)C=CC2=O)c1` [N,N'-1,3-Phenylenedimaleimide] showed an IC50 of 49 µM.

`CCC(C)Nc1ccc(NC(C)CC)cc1` (centres unmarked) [N,N'-Bis(1-methylpropyl)-1,4-benzenediamine] gave an IC50 of 12.5 µM. For the compound `c1ccc(Nc2ccc(Nc3ccccc3)cc2)cc1` [N,N'-Diphenyl-p-phenylenediamine], it took 41 µM to reach half-maximal inhibition (IC50). For `CCCCCCCCCCCCCCCCCC[N+](C)(C)C` [N,N,N-Trimethyloctadecan-1-aminium chloride] the value was 17.4 µM; for `CCN(CC)c1ccc(N)cc1` [N,N-Diethyl-p-phenylenediamine], 35.6 µM; for `CCCCCCCCCCCCCCCCCC[N+](C)(C)Cc1ccccc1` [N,N-Dimethyl-N-benzyl-N-octadecylammonium chloride], 4.41 µM.

As for `CCCCCCC(C)Nc1ccc(Nc2ccccc2)cc1` (centres unmarked) [N-(1-Methylheptyl)-N'-phenyl-1,4-benzenediamine], the half-inhibitory concentration (IC50) is 34.7 µM.

In the case of `NCCNc1cccc2ccccc12` [N-(1-Naphthyl)ethylenediamine dihydrochloride], it took 40.2 µM to reach half-maximal inhibition (IC50). Under `CC(C)CC(C)N(c1ccccc1)c1ccc(N)cc1` (centres unmarked) [N-(4-Methylpentan-2-yl)-N-phenylbenzene-1,4-diamine] stands 27.5 µM; under `CCN(CCN)c1cccc(C)c1` [N-Ethyl-N-(3-methylphenyl)ethane-1,2-diamine], 49 µM; under `CC(C)Nc1ccc(Nc2ccccc2)cc1` [N-Isopropyl-N'-phenyl-p-phenylenediamine], 28.5 µM.

Consider `C#CCN(C)CCCOc1ccc(Cl)cc1Cl` [N-Methyl-N-propargyl-3-(2,4-dichlorophenoxy)propylamine hydrochloride], for which the IC50 is 8.82 µM. For `CCCCCCCCN(C)CCCCCCCC` [N-Methyldioctylamine] the value was 3.25 µM; for `c1ccc(Nc2cccc3ccccc23)cc1` [N-Phenyl-1-naphthylamine], 33.4 µM.

`CCCCCCCCCCCC(=O)NCCCN(C)C` [N-[3-(Dimethylamino)propyl]dodecanamide]: the IC50 is 14.3 µM. `O=C(N[C@@H]1N=C(c2ccccc2F)c2cccc3c2N(CC3)C1=O)c1cc2ccccc2[nH]1` [N-[(3R)-1-(2-Fluorophenyl)-4-oxo-3,4,6,7-tetrahydro[1,4]diazepino[6,7,1-hi]indol-3-yl]-1H-indole-2-carboxamide] had an IC50 of 8.82 µM. This IC50 is about 1.6-fold lower than that of the compound before. With `CCN(CC)CCOC(=O)C(Cc1cccc2ccccc12)CC1CCCO1` (centres unmarked) [Nafronyl oxalate], the midpoint of inhibition, the IC50, lay at 8.99 µM. As to `COc1ccccc1N1CCN(CC(O)COc2cccc3ccccc23)CC1` (centres unmarked) [Naftopidil], 1.69 µM corresponded to half-maximal inhibition (IC50). Consider `C[C@]12CC[C@H]3[C@@H](CCC4=CC(=O)CC[C@@H]43)[C@@H]1CC[C@@H]2OC(=O)CCC1CCCCC1` [Nandrolone cyclohexylpropionate], for which 15.1 µM corresponded to half-maximal inhibition (IC50). This IC50 is about 8.9-fold higher than that of the compound before.

`C[C@]12CC[C@H]3[C@@H](CCC4=CC(=O)CC[C@@H]43)[C@@H]1CC[C@@H]2OC(=O)CCc1ccco1` [Nandrolone furylpropionate] showed an IC50 of 12 µM. As for `C[C@]12CC[C@H]3[C@@H](CCC4=CC(=O)CC[C@@H]43)[C@@H]1CC[C@@H]2OC(=O)CCc1ccccc1` [Nandrolone phenpropionate], the IC50 was 12.5 µM. Compound `CCc1nn(CCCN2CCN(c3cccc(Cl)c3)CC2)c(=O)n1CCOc1ccccc1` [Nefazodone hydrochloride] had a concentration for half-maximal inhibition (IC50) of 1.57 µM.

In the case of `COc1ccc(S(=O)(=O)N2C(=O)[C@@](c3ccccc3OC)(N3C[C@H](O)C[C@H]3C(=O)N(C)C)c3cc(Cl)ccc32)c(OC)c1` [Nelivaptan], 54.9 µM corresponded to half-maximal inhibition (IC50).

`CC(C)(COC(=O)c1ccccc1)COC(=O)c1ccccc1` [Neopentyl glycol dibenzoate] showed an IC50 of 13.8 µM. `C=CC(C)(O)CCC=C(C)CCC=C(C)C` (centres unmarked) [Nerolidol]: half-maximal inhibition (IC50) was put at 47.1 µM.

The compound `CCCCCOc1ccccc1/C(=C\SC)n1ccnc1` [Neticonazole] had an IC50 of 20.5 µM.

In the case of `CO[C@]12C[C@@H](COC(=O)c3cncc(Br)c3)CN(C)[C@@H]1Cc1cn(C)c3cccc2c13` [Nicergoline], the IC50 is 1.45 µM. Under `CNCCC(Oc1ccccc1OC)c1ccccc1` (centres unmarked) [Nisoxetine] stands 9.52 µM; under `O=[N+]([O-])c1ccc(Oc2ccc(Cl)cc2Cl)cc1` [Nitrofen], 18.9 µM; under `CC(C)OC(=O)c1cc(C(=O)OC(C)C)cc([N+](=O)[O-])c1` [Nitrothal-isopropyl], 40.6 µM. For `N=C(N)NN=C(/C=C/c1ccc([N+](=O)[O-])o1)/C=C/c1ccc([N+](=O)[O-])o1` [Nitrovin] the value was 2.3 µM. `CCN(CC)Cc1nccn1-c1ccc([N+](=O)[O-])cc1C(=O)c1ccccc1Cl` [Nizofenone fumarate] gave an IC50 of 6.74 µM. Against the preceding compound, the IC50 is about 2.9-fold higher. For `CN1Cc2c(N)cccc2C(c2ccccc2)C1` (centres unmarked) [Nomifensine] the value was 38.9 µM.

The compound `CCC(=O)C(CCN(C)C)(c1ccccc1)c1ccccc1` [Normethadone] showed an IC50 of 15.1 µM.

Regarding `CC(CCc1ccccc1)NC(C)C(O)c1ccc(O)cc1` (centres unmarked) [Nylidrin], the IC50 was 5.56 µM. Under `CCCCCCCCn1sccc1=O` [Octhilinone] stands 27.6 µM. The compound `CN1CCN(C2Cc3ccccc3Sc3ccc(Cl)cc32)CC1` (centres unmarked) [Octoclothepine maleate] gave an IC50 of 0.849 µM. Under `CC(C)(C)CC(C)(C)c1ccc(O)c(-n2nc3ccccc3n2)c1` [Octrizole] stands 14.5 µM.

Consider `CCCCC(CC)CN1C(=O)C2C3C=CC(C3)C2C1=O` (centres unmarked) [Octylbicycloheptenedicarboximide], for which half-maximal inhibition (IC50) was put at 49 µM. This IC50 is about 3.4-fold higher than that of the compound before. As for `C/C(=C(/OCCOc1ccc(Cl)cc1)c1ccc(Cl)cc1Cl)n1ccnc1` [Omoconazole], half-maximal inhibition (IC50) was put at 8.17 µM. In turn, `CC(C)Oc1cc(-n2nc(C(C)(C)C)oc2=O)c(Cl)cc1Cl` [Oxadiazon] gave an IC50 of 44.7 µM. For `C[N+]1(CC2COC(c3ccccc3)(C3CCCCC3)O2)CCCCC1` (centres unmarked) [Oxapium iodide] the value was 14 µM; for `O=c1[nH]c2ccccc2n1CCCN1CCN(C(c2ccccc2)c2ccccc2)CC1` [Oxatomide], 0.442 µM; for `CCOc1cc(Oc2ccc(C(F)(F)F)cc2Cl)ccc1[N+](=O)[O-]` [Oxyfluorfen], 21.9 µM.

As for `CN1CCCN=C1COC(=O)C(O)(c1ccccc1)C1CCCCC1` (centres unmarked) [Oxyphencyclimine hydrochloride], 5.15 µM corresponded to half-maximal inhibition (IC50).

Compound `Cc1cc(CCN2CCN(c3nsc4ccccc34)CC2)cc2c1NC(=O)CC2(C)C` [PD 0343701] gave an IC50 of 16.1 µM. This IC50 is about 3.1-fold higher than that of the compound before.

Take `COc1ccnc(C[S+]([O-])c2nc3ccc(OC(F)F)cc3[nH]2)c1OC` (centres unmarked) [Pantoprazole sodium]: the IC50 was 49.3 µM. Compared with the last compound, the IC50 is about 3.1-fold higher. Under `OC(c1ccc(Cl)cc1)(c1ccc(Cl)cc1)c1cccnc1` [Parinol] stands 20.3 µM; under `O=C(Nc1ccccc1)N(Cc1ccc(Cl)cc1)C1CCCC1` [Pencycuron], 33.4 µM; under `OC1(c2ccc(Cl)c(C(F)(F)F)c2)CCN(CCCC(c2ccc(F)cc2)c2ccc(F)cc2)CC1` [Penfluridol], 0.239 µM. For the compound `CCCCCC1Nc2cc(C(F)(F)F)c(S(N)(=O)=O)cc2S(=O)(=O)N1` (centres unmarked) [Penflutizide], 23 µM corresponded to half-maximal inhibition (IC50).

The compound `BrC(Br)C(Br)(Br)Br` [Pentabromoethane] gave an IC50 of 49.3 µM.

For `CCCN1C[C@H](CSC)C[C@@H]2c3cccc4[nH]cc(c34)C[C@H]21` [Pergolide methanesulfonate], the IC50 is 7.56 µM. For `O=C1[C@H]2CCCC[C@H]2C(=O)N1CCCCN1CCN(c2nsc3ccccc23)CC1` [Perospirone hydrochloride] the value was 8.49 µM; for `CCc1cc(SCc2sc(-c3ccc(C(F)(F)F)cc3)nc2CN2CCN(c3ccc(OC)cc3)CC2)ccc1OCC(=O)O` [PharmaGSID_47315], 3.34 µM; for `O=C1c2ccccc2C(=O)N1CCc1noc(-c2ccc(CN3CCCCCC3)s2)n1` [PharmaGSID_48172], 23.4 µM.

Turning to `Cc1[nH]nc2c1N=C(c1ccccc1Cl)c1cc([N+](=O)[O-])ccc1N2` [PharmaGSID_48505], the IC50 was 11.4 µM. Under `CN1C(=O)N(c2ccccc2Br)Cc2cnc(Nc3ccc4c(c3)OCC(CO)O4)nc21` (centres unmarked) [PharmaGSID_48519] stands 43.6 µM; under `CCCC[C@H]1CN(CC2CCOCC2)C(=O)OC12CCN(C1(C)CCN(C(=O)c3c(C)ncnc3C)CC1)CC2` [PharmaGSID_48521], 13.6 µM; under `O=C(C=Cc1ccccc1)OCCc1ccccc1` [Phenethyl cinnamate], 36 µM. Regarding `S=C=NCCc1ccccc1` [Phenethyl isothiocyanate], half-maximal inhibition (IC50) required 16.8 µM.
